≈ marks a conversion by molar mass, not a printed value. Calls of active or inactive are those of the source. No cut-off for these calls is given here.
Tests used:
[1] = test system: Rattus norvegicus; assay: Ulcerogenic effect in po dosed rat assessed as lesions of bleedings; format: toxicity, organism-based; details: in vivo
[2] = test system: Staphylococcus aureus; assay: Antimicrobial activity against Staphylococcus aureus assessed as zone of inhibition by agar diffusion method; format: functional
[3] = test system: Klebsiella pneumoniae; assay: Antimicrobial activity against Klebsiella pneumoniae assessed as zone of inhibition >8 mm by twofold serial dilution method; format: functional
[4] = test system: Escherichia coli; assay: Antimicrobial activity against Escherichia coli assessed as zone of inhibition by agar diffusion method; format: functional
[5] = test system: Micrococcus luteus; assay: Antimicrobial activity against Micrococcus luteus assessed as zone of inhibition by agar diffusion method; format: functional
[6] = test system: Rattus norvegicus; assay: Antiinflammatory activity in albino rat assessed as inhibition of carrageenan-induced paw edema measured as paw thickness at 0.03 mmol/kg, po administered 1 hr prior to carrageenan challenge measured after 4 hrs (reference value: 1.260 +/- 0.172 mm)
[7] = test system: Mus musculus; assay: Analgesic activity in mouse assessed as inhibition of acetic acid-induced writhing measured as potency at 0.03 mM/kg; parameters: scale not given: the % may be the effect or the level left
[8] = test system: Micrococcus luteus; assay: Antimicrobial activity against Micrococcus luteus assessed as growth inhibition by agar diffusion method; format: functional
[9] = test system: Rattus norvegicus; assay: Antiinflammatory activity in albino rat assessed as inhibition of carrageenan-induced paw edema at […], po administered 1 hr prior to carrageenan challenge measured after 4 hrs relative to control; format: functional
[10] = test system: Rattus norvegicus; assay: Antiinflammatory activity in albino rat assessed as inhibition of carrageenan-induced paw edema at […], po administered 1 hr prior to carrageenan challenge measured after 6 hrs relative to control; format: functional
[11] = test system: Rattus norvegicus; assay: Antiinflammatory activity in albino rat assessed as inhibition of carrageenan-induced paw edema measured as paw thickness at 0.03 mmol/kg, po administered 1 hr prior to carrageenan challenge measured after 6 hrs (reference value: 1.081 +/- 0.257 mm)
[12] = test system: Mus musculus; assay: Analgesic activity in mouse assessed as inhibition of acetic acid-induced writhing at 0.03 mM/kg
[13] = test system: Escherichia coli; assay: Antimicrobial activity against Escherichia coli assessed as zone of inhibition >8 mm by twofold serial dilution method; format: functional
[14] = test system: Klebsiella pneumoniae; assay: Antimicrobial activity against Klebsiella pneumoniae assessed as zone of inhibition by agar diffusion method; format: functional
[15] = test system: Staphylococcus aureus; assay: Antimicrobial activity against Staphylococcus aureus assessed as zone of inhibition >8 mm by twofold serial dilution method; format: functional
[16] = test system: Micrococcus luteus; assay: Antimicrobial activity against Micrococcus luteus assessed as zone of inhibition >8 mm by twofold serial dilution method; format: functional
[17] = test system: Staphylococcus aureus; assay: Antimicrobial activity against Staphylococcus aureus assessed as growth inhibition by agar diffusion method; format: functional

SMILES	Activity [1]	diameter of the inhibition zone (DIZ) [2]	MIC [3] [µM]	diameter of the inhibition zone (DIZ) [4] [mm]	diameter of the inhibition zone (DIZ) [5]	Activity [6] [mm]	Activity [7] [%]	growth inhibition (GI) [8]	inhibition in vivo [9] [%]	inhibition in vivo [10] [%]	Activity [11] [mm]	inhibition (INH) [12] [%]	MIC [13] [µM]	diameter of the inhibition zone (DIZ) [14] [mm]	MIC [15] [µM]	MIC [16] [µM]	growth inhibition (GI) [17]
COc1ccc(NCC2C(=O)N(C(=O)c3cc4ccccc4oc3=O)N=C2C)cc1 (configuration not stated)	Toxic	15 mm	61.7 (≈ 25 µg/mL)	18	inactive	2.215	47.17	inactive	36.1	55.1	1.821	32.47	30.8 (≈ 12.5 µg/mL)	18	61.7 (≈ 25 µg/mL)		
CC1=NN(C(=O)c2cc3ccccc3oc2=O)C(=O)C1CNc1ccc(O)cc1 (configuration not stated)	Toxic	12 mm	63.9 (≈ 25 µg/mL)	18	18 mm	2.231	60.38		35.6	50.7	1.947	41.56	63.9 (≈ 25 µg/mL)	18	63.9 (≈ 25 µg/mL)	128 (≈ 50 µg/mL)	
CC1=NN(C(=O)c2cc3ccccc3oc2=O)C(=O)C1CNc1ccc(O)c(C(=O)O)c1 (configuration not stated)	Non-toxic	12 mm	115 (≈ 50 µg/mL)	12	12 mm	2.396	50.94		30.9	50.9	1.939	35.06	57.4 (≈ 25 µg/mL)	12	115 (≈ 50 µg/mL)	115 (≈ 50 µg/mL)	
CC1=NN(C(=O)c2cc3ccccc3oc2=O)C(=O)C1CNc1ccc(S(N)(=O)=O)cc1 (configuration not stated)	Non-toxic	15 mm	55 (≈ 25 µg/mL)	12	inactive	1.079	94.33	inactive	68.9	77.9	0.873	64.93	27.5 (≈ 12.5 µg/mL)	15	55 (≈ 25 µg/mL)		
CC1=NN(C(=O)c2cc3ccccc3oc2=O)C(=O)C1CNc1cccc(S(N)(=O)=O)c1 (configuration not stated)	Non-toxic	18 mm	55 (≈ 25 µg/mL)	12	inactive	1.116	49.06	inactive	67.8	79.9	0.793	33.77	55 (≈ 25 µg/mL)	12	55 (≈ 25 µg/mL)		
CC1=NN(C(=O)c2cc3ccccc3oc2=O)C(=O)C1CNc1c(O)cc(S(=O)(=O)O)c2ccccc12 (configuration not stated)		15 mm	48 (≈ 25 µg/mL)	15	inactive	2.715	79.25	inactive	21.6	45.3	2.16	54.55	24 (≈ 12.5 µg/mL)	18	48 (≈ 25 µg/mL)		
COc1ccc2c(c1)c(CC(=O)O)c(C)n2C(=O)c1ccc(Cl)cc1 [INDOMETHACIN]						1.144	100		67.8	76	0.985	68.83					
CC1=NN(C(=O)c2cc3ccccc3oc2=O)C(=O)C1CNc1ccc([N+](=O)[O-])cc1 (configuration not stated)	Non-toxic	12 mm	119 (≈ 50 µg/mL)	15	15 mm	1.32	86.79		61.9	72	1.107	59.74	119 (≈ 50 µg/mL)	12	119 (≈ 50 µg/mL)	119 (≈ 50 µg/mL)	
CC1=NN(C(=O)c2cc3ccccc3oc2=O)C(=O)C1CNc1ccc(C(=O)O)cc1 (configuration not stated)	Non-toxic	12 mm	119 (≈ 50 µg/mL)	12	18 mm	1.26	88.68		63.6	72.6	1.081	61.04	119 (≈ 50 µg/mL)	14	59.6 (≈ 25 µg/mL)	119 (≈ 50 µg/mL)	
CC1=NN(C(=O)c2cc3ccccc3oc2=O)C(=O)C1CNc1ccccn1 (configuration not stated)	Toxic	15 mm	66.4 (≈ 25 µg/mL)	15	12 mm	2.389	43.4		31.1	50.3	1.961	29.87	133 (≈ 50 µg/mL)	15	66.4 (≈ 25 µg/mL)	66.4 (≈ 25 µg/mL)	
CC1=NN(C(=O)c2cc3ccccc3oc2=O)C(=O)C1CNc1ccc(Cl)cc1 (configuration not stated)	Toxic	inactive	61 (≈ 25 µg/mL)	12	18 mm	1.956	103.78		43.5	71.5	1.125	71.43	30.5 (≈ 12.5 µg/mL)	12		61 (≈ 25 µg/mL)	inactive
O=C(O)c1cn(C2CC2)c2cc(N3CCNCC3)c(F)cc2c1=O [CIPROFLOXACIN]		24 mm	0.59 (≈ 0.195 µg/mL)		25 mm								4.72 (≈ 1.56 µg/mL)	17	9.43 (≈ 3.12 µg/mL)	0.59 (≈ 0.195 µg/mL)	
